Values after ≈ are worked out from the molar mass of the structure shown.
Legend:
Test in all cases: In vitro antibacterial evaluation: minimum inhibitory concentration (MIC), broth dilution method
Assay type in all cases: cell-based
[1] = test system: Enterococcus sp.; settings: Enterococcus faecium (GC 4557)
Protocol: (§1) The minimum inhibitory concentration (MIC), the lowest concentration of the antibiotic which inhibits growth of the test organism, is determined by the broth dilution method using Muller-Hinton II […] (Baltimore Biological Laboratories) following the recommendations of the National Committee for Clinical Laboratory Standards [Methods for dilution antimicrobial susceptibility tests for bacteria that grow aerobically, approved standard M7-A2, National Committee for Clinical Laboratory Standards, Villanova, Pa].
(§2) An inoculum level of 5×10^5 CFU/mL, and a range of antibiotic concentrations (64-0.06 μg/mL) is used. […] The test organisms include a spectrum of Gram-positive bacteria comprised of Staphylococcus sp., Streptococcus sp. and Enterococcus sp. These organisms include recent clinical isolates that are resistant to methicillin, penicillin and/or vancomycin.

[2] = test system: Staphylococcus sp.; settings: 18 hours at 35° C.
Protocol: as §1, §2

[3] = test system: Escherichia coli; settings: Escherichia coli (GC 4560)
Protocol: as §1, §2

CC(C)CC(=O)OCC1OC(OC2C(CO)OC(Oc3ccc(CC4NC(=O)C(Cc5ccccc5)NC(=O)CNC(=O)C(CO)NC(=O)C(C(O)C5CNC(=N)N5C5OC(CO)C(O)C(O)C5O)NC(=O)C(C(O)C5CNC(=N)N5)NC4=O)cc3)C(O)C2O)C(O)C(O)C1O (stereo not drawn) [Example 283c, Cyclo[glycylphenylalanyl-O-[4-O-[6-O-(3-methylbutanoyl)-hexopyranosyl]hexopyranosyl]tyrosyl-3-(2-iminoimidazolidin-4-yl)seryl-3-(3-hexopyranosyl-2-iminoimidazolidin-4-yl)serylseryl]]
MIC Enterococcus faecium (GC 4557) [1]: 16 µg/mL (≈ 11.7 µM) | MIC Coagulase Negative Staphylococcus (GC 4547) [2]: 16 µg/mL (≈ 11.7 µM) | MIC Coagulase Negative Staphylococcus (GC 4547) ([2]; broth dilution): 16 µg/mL (≈ 11.7 µM) | MIC Coagulase Negative Staphylococcus (GC 4548) [2]: 8 µg/mL (≈ 5.86 µM) | MIC Coagulase Negative Staphylococcus (GC 4548) ([2]; broth dilution): 8 µg/mL (≈ 5.86 µM) | MIC Coagulase Negative Staphylococcus (GC 4549) [2]: 16 µg/mL (≈ 11.7 µM) | MIC Coagulase Negative Staphylococcus (GC 4549) ([2]; broth dilution): 16 µg/mL (≈ 11.7 µM) | MIC Coagulase Negative Staphylococcus (GC 4551) [2]: 32 µg/mL (≈ 23.4 µM) | MIC Coagulase Negative Staphylococcus (GC 4551) ([2]; broth dilution): 32 µg/mL (≈ 23.4 µM) | MIC Staphylococcus aureus (ATCC 29213) [2]: 32 µg/mL (≈ 23.4 µM) | MIC Staphylococcus aureus (ATCC 29213) ([2]; broth dilution): 32 µg/mL (≈ 23.4 µM) | MIC Staphylococcus aureus (GC 1131) [2]: 32 µg/mL (≈ 23.4 µM) | MIC Staphylococcus aureus (GC 1131) ([2]; broth dilution): 32 µg/mL (≈ 23.4 µM) | MIC Staphylococcus aureus (GC 3051) [2]: 32 µg/mL (≈ 23.4 µM) | MIC Staphylococcus aureus (GC 3051) ([2]; broth dilution): 32 µg/mL (≈ 23.4 µM) | MIC Staphylococcus aureus (GC 3053) [2]: 64 µg/mL (≈ 46.9 µM) | MIC Staphylococcus aureus (GC 3053) ([2]; broth dilution): 64 µg/mL (≈ 46.9 µM) | MIC Staphylococcus aureus (GC 4541) [2]: 32 µg/mL (≈ 23.4 µM) | MIC Staphylococcus aureus (GC 4541) ([2]; broth dilution): 32 µg/mL (≈ 23.4 µM) | MIC Staphylococcus aureus (GC 4542) [2]: 32 µg/mL (≈ 23.4 µM) | MIC Staphylococcus aureus (GC 4542) ([2]; broth dilution): 32 µg/mL (≈ 23.4 µM) | MIC Staphylococcus aureus (GC 4544) [2]: 32 µg/mL (≈ 23.4 µM) | MIC Staphylococcus aureus (GC 4544) ([2]; broth dilution): 32 µg/mL (≈ 23.4 µM) | MIC Staphylococcus aureus (GC 4545) [2]: 16 µg/mL (≈ 11.7 µM) | MIC Staphylococcus aureus (GC 4545) ([2]; broth dilution): 16 µg/mL (≈ 11.7 µM) | MIC Staphylococcus aureus-SMITH (GC 4543) [2]: 16 µg/mL (≈ 11.7 µM) | MIC Staphylococcus aureus-SMITH (GC 4543) ([2]; broth dilution): 16 µg/mL (≈ 11.7 µM) | MIC Staphylococcus haemolyticus (GC 4546) [2]: 16 µg/mL (≈ 11.7 µM) | MIC Staphylococcus haemolyticus (GC 4546) ([2]; broth dilution): 16 µg/mL (≈ 11.7 µM) | MIC Escherichia coli (GC 4560) [3]: 8 µg/mL (≈ 5.86 µM)

— US8247211B2, “Glycopeptide antibiotics” (American Cyanamid Company, priority 2001, dated 2012)
